17 molecules from patent US10562869B2, “Oxadiazole compounds” (REMYND NV, priority 2014, dated 2020) can be followed below.

Assay [1] concerns db/db mice. Nature of the assay: In vivo evaluation in db/db mice (type 2 diabetes model). The settings on record: 15 mg/kg IP, vs vehicle. The source says:
For in vivo evaluation of compound efficacy, male BKS.Cg-+Leprdb/Leprdb/OlaHsd mice (db/db mice—Harlan) were used. The db/db phenotype results from a mutation in the leptin receptor gene, leading to a splice variant (Chen, Charlat et al. 1996; Lee, Proenca et al. 1996). The development of type 2 diabetes in db/db mice is associated with reduced insulin levels due to progressive β-cell failure following an initial period of hypersecretion of insulin. Since these mice develop type 2 diabetes in a manner related to pathology development in humans, and the model is accepted as in vivo model for evaluation of novel anti-diabetic treatments by the Food and Drug Administration (FDA, US), it is a highly relevant model for testing candidate drugs for efficacy.
Compounds were administered intraperitoneal (IP) or oral (PO) at a dose of maximally 50 mg/kg. Mice were subjected to metabolic analysis weekly or bi-weekly. These tests included but were not limited to determination of fasting (5 hrs) and non-fasting blood glucose levels, plasma insulin levels, % glycated hemoglobin (HbA1c) levels, glucose tolerance test and insulin sensitivity test.

Assay [2] concerns INS-1E cells. Nature of the assay: Cytokine-induced caspase-3/7 activation in INS-1E cells (beta cell stress/apoptosis model, Caspase-Glo 3/7). The assay is classed as cell-based. The settings on record: Rattus norvegicus, cytokine mix (IFN-γ, IL-1β, TNF-α), 24 hours, caspase 3/7 activity, read-out: CYT EC50. From the text:
The INS-1E cell line, a rat insulinoma cell line, has been characterized extensively. INS-1E cells respond to glucose by secreting insulin and, unlike most other immortalized β-cell lines, they do this in a consistent manner over time. The cells are sensitive to hyperglycemia-, free fatty acid (FFA)-, and cytokine-induced stress. Prolonged stress ultimately leads to induction of apoptotic pathways and, if stress is not counter-acted, to apoptosis. Caspase-3 and -7 play a central role downstream where various apoptotic pathways merge. As such, activation (i.e. cleavage) of these caspases forms a relevant primary read-out to evaluate protective activity of compounds against stress-induced apoptosis.
To evaluate the efficacy of different compounds to prevent induction of apoptosis, an in vitro screen was developed in which INS-1E cells were exposed to a cytokine mix (IFN-γ, 5 ng/ml; IL-1β, 20 pg/ml; TNF-α, 0.25 ng/ml). The degree of induction of apoptosis was evaluated using a substrate for cleaved caspase-3 and -7, i.e. a proluminescent caspase-3/7 DEVD aminoluciferin substrate with a thermostable luciferase (Caspase-Glo® 3/7 assay; Promega, cat. G8092).
On day 0, INS-1E cells were plated in a white-walled 96-well microplate (Greiner, cat. 655098) at 20,000 cells per well in 100 μl complete medium (RPMI containing 11 mM glucose supplemented with 5% FCS, 100 IU/ml penicillin, 100 μg/ml streptomycin, 10 mM HEPES, 1 mM Sodium Pyruvate and 50 μM 2-Mercapto-ethanol). On day 2, 100 μl medium containing cytokines and compound dissolved in DMSO was added to the cells. Wells without cytokines containing DMSO and wells with cytokines and DMSO were included to evaluate the degree of caspase 3/7 activation by the cytokine mix. After 24 hours exposure to cytokines and/or compound, Caspase-Glo® 3/7 reagent was added to the cells and caspase activity was determined by measuring luminescence.
To evaluate compound efficacy, the “toxicity window” was calculated by subtracting caspase activity of wells without stressor from activity of wells with stressor but without compound. The amount of caspase activity in the latter wells was normalized to 1 and used as reference. Subsequently, caspase activity in the wells with stressor and varying concentrations of compound was calculated relative to the wells without compound. Plotting caspase activity vs the log 10 of the concentration of compound permitted calculation of the EC50 values for the compounds which typically lied between 0.0001 and 10 μM. Compounds with an EC50<10 μM were considered active.

Assay [3] relates to M17_3SYN cells. Nature of the assay: Paraquat-induced cytotoxicity (LDH) in α-synuclein over-expressing M17_3SYN neuroblastoma cells. The assay is classed as cell-based, human. The settings on record: Homo sapiens, Neuroblastoma cell, 48 h, toxicity inhibition (LDH) in M17_3SYN cells challenged with 6 mM paraquat, 2 days; read-out: SYN EC50. The method, boiled down: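 Human BE-M17 neuroblastoma cells stably overexpressing wild-type α-synuclein challenged with paraquat (final 6 mM) for 2 days at 37 °C alongside compounds over a concentration range. Cytotoxicity as LDH released relative to total LDH; EC50 from dose-dependent inhibition curve.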

A word on the EC50: it is the midpoint of the concentration-response curve. Regarding `CSc1ccc(S(=O)(=O)N2CCN(c3nc(C4(c5ccc(F)cc5)CC4)no3)CC2)cc1` [Cmpd110, 1-{3-[1-(4-Fluoro-phenyl)-cyclopropyl]-[1,2,4]oxadiazol-5-yl}-4-(4-methylsulfanyl-benzenesulfonyl)-piperazine], the Plasma insulin levels result in assay [1] (after 6 weeks of treatment, FIG. 1C) is recorded as “significantly higher”. In assay [1] (FIG. 1A), the “weight gain (non-fasted body weight)” value is given as “increased”. In addition, the “Fasted blood glucose levels” value in assay [1] (FIG. 1B) is recorded as “significantly lower”. Moreover, the figures for the EC50 in assay [2] and in assay [3] were 10 nM and 30 nM, respectively.
Regarding `CSc1ccc(S(=O)(=O)N2CCN(c3nc(C4(c5ccccc5)CC4)no3)CC2)cc1` [Cmpd126, 1-(4-Methylsulfanyl-benzenesulfonyl)-4-[3-(1-phenyl-cyclopropyl)-[1,2,4]oxadiazol-5-yl]-piperazine], the EC50 worked out at 28 nM in assay [2] and 7 nM in assay [3].
As for `CSc1ccc(S(=O)(=O)N2CCN(c3nc(C4C[C@@H]5CC[C@H]4C5)no3)CC2)cc1` (stereo partly drawn) [Cmpd191, 3-((1S,4R)-bicyclo[2.2.1]heptan-2-yl)-5-(4-((4-(methylthio)phenyl)sulfonyl)piperazin-1-yl)-1,2,4-oxadiazole], the EC50 in assay [2] was determined as 554 nM; in assay [3], 109 nM.
As to `CSc1ccc(S(=O)(=O)N2CCN(c3nc(C4(c5cccc(Cl)c5)CC4)no3)CC2)cc1` [Cmpd137, 1-{3-[1-(3-Chloro-phenyl)-cyclopropyl]-[1,2,4]oxadiazol-5-yl}-4-(4-methylsulfanyl-benzenesulfonyl)-piperazine], the figures for the EC50 in assay [2] and in assay [3] were 9 nM and 7 nM, respectively.
For `COc1ccc(S(=O)(=O)N2CCC3(CC2)CN(c2nc(C4(c5ccc(F)cc5)CC4)no2)C3)cc1` [Cmpd213, 3-(1-(4-Fluorophenyl)cyclopropyl)-5-(7-((4-methoxyphenyl)sulfonyl)-2,7-diazaspiro[3.5]nonan-2-yl)-1,2,4-oxadiazole] the same measures were 10 nM and 360 nM.
For the molecule `COc1ccc(S(=O)(=O)N2CCN(c3nc(C4(c5ccc(F)cc5)CC4)no3)CC2)cc1` [Cmpd105, 1-{3-[1-(4-Fluoro-phenyl)-cyclopropyl]-[1,2,4]oxadiazol-5-yl}-4-(4-methoxy-benzenesulfonyl)-piperazine], the figures for the EC50 in assay [2] and in assay [3] were 27 nM and 9 nM, respectively.
Taken in the same sequence, the figures for `O=S(=O)(c1ccc(OC(F)F)cc1)N1CCN(c2nc(C3(c4cccc(Cl)c4)CC3)no2)CC1` [Cmpd136, 1-{3-[1-(3-Chloro-phenyl)-cyclopropyl]-[1,2,4]oxadiazol-5-yl}-4-(4-difluoromethoxy-benzenesulfonyl)-piperazine] were 24 nM and 8 nM.
Regarding `COc1ccc(S(=O)(=O)N2CCN(c3nc(COc4ccc(F)cc4)no3)CC2)cc1` [Cmpd206, 3-((4-Fluorophenoxy)methyl)-5-(4-((4-methoxyphenyl)sulfonyl)piperazin-1-yl)-1,2,4-oxadiazole], the EC50 is 189 nM in assay [2] and 22 nM in assay [3].
Taken in the same sequence, the figures for `COc1ccc(S(=O)(=O)N2CCN(c3nc(C(C)(C)c4ccc(F)cc4)no3)CC2)cc1` [Cmpd113, 1-{3-[1-(4-Fluoro-phenyl)-1-methyl-ethyl]-[1,2,4]oxadiazol-5-yl}-4-(4-methoxy-benzenesulfonyl)-piperazine] were 1 nM and 8 nM.
Taken in the same sequence, the figures for `CSc1ccc(S(=O)(=O)N2CCN(c3nc(C(F)(F)c4ccc(Cl)cc4)no3)CC2)cc1` [Cmpd145, 1-{3-[(4-Chloro-phenyl)-difluoro-methyl]-[1,2,4]oxadiazol-5-yl}-4-(4-methylsulfanyl-benzenesulfonyl)-piperazine] were 82 nM and 15 nM.
Taken in the same sequence, the figures for `COc1ccc(S(=O)(=O)N2CCN(c3nc(C4(c5ccccc5)CC4)no3)CC2)cc1` [Cmpd120, 1-(4-Methoxy-benzenesulfonyl)-4-[3-(1-phenyl-cyclopropyl)-[1,2,4]oxadiazol-5-yl]-piperazine] were 40 nM and 4 nM.
With `CCOc1ccc(S(=O)(=O)N2CCN(c3nc(C4(c5ccc(F)cc5)CC4)no3)CC2)cc1` [Cmpd106, 1-(4-Ethoxy-benzenesulfonyl)-4-{3-[1-(4-fluoro-phenyl)-cyclopropyl]-[1,2,4]oxadiazol-5-yl}-piperazine], the EC50 is 99 nM in assay [2] and 65 nM in assay [3].
For `COc1ccc(S(=O)(=O)N2CCC3(CC2)CN(c2nc(CC(F)(F)F)no2)C3)cc1` [Cmpd214, 5-(7-((4-Methoxyphenyl)sulfonyl)-2,7-diazaspiro[3.5]nonan-2-yl)-3-(2,2,2-trifluoroethyl)-1,2,4-oxadiazole] the same measures were 55 nM and 164 nM.
With `COc1ccc(S(=O)(=O)N2CCN(c3nc(C(C)(C)c4ccnc(C)c4)no3)CC2)cc1` [Cmpd195, 5-(4-((4-Methoxyphenyl)sulfonyl)piperazin-1-yl)-3-(2-(2-methylpyridin-4-yl)propan-2-yl)-1,2,4-oxadiazole], the EC50 turned out to be 52 nM in assay [2] and 70 nM in assay [3].
Take `COc1ccc(S(=O)(=O)N2CCN(c3nc(C4(c5cccc(Cl)c5)CC4)no3)CC2)cc1` [Cmpd134, 1-{3-[1-(3-Chloro-phenyl)-cyclopropyl]-[1,2,4]oxadiazol-5-yl}-4-(4-methoxy-benzenesulfonyl)-piperazine]: the values for the EC50 in assay [2] and in assay [3] were 16 nM and 2 nM, respectively.
For `O=S(=O)(c1ccc(OC(F)F)cc1)N1CCN(c2nc(C3(c4ccccc4)CC3)no2)CC1` [Cmpd122, 1-(4-Difluoromethoxy-benzenesulfonyl)-4-[3-(1-phenyl-cyclopropyl)-[1,2,4]oxadiazol-5-yl]-piperazine], the results for the EC50 in assay [2] and in assay [3] were 43 nM and 9 nM, respectively.
As to `COc1ccc(S(=O)(=O)N2CCN(c3nc(COCC4CC4)no3)CC2)cc1` [Cmpd203, 3-((Cyclopropylmethoxy)methyl)-5-(4-((4-methoxyphenyl)sulfonyl)piperazin-1-yl)-1,2,4-oxadiazole], the EC50 in assay [2] was 153 nM; in assay [3], 8 nM.
